Tests used:
[1] = test system: fibroblast growth factor receptor (FGFR); assay: Tyrosine phosphorylation of FGFR in intact FM55 melanoma cells; assay type: cell-based, human; conditions: Experiment 3, 0.7 μM, 1 h, control = 100%
Method: (§1) Cells were cultured to subconfluency in 6-cm plates, and then fresh medium containing 10% FBS and the desired compounds were added for 1 h. The cells were then lyzed and subjected to immunoprecipitation using specific antibodies. Immunoprecipitates were resolved by sodium dodecyl sulphate polyacrylamide gel electrophoresis (SDS-PAGE) and transferred to nitro-cellulose membranes and incubated with anti-phosphotyrosine antibody. Antibodies to actin (in cell extract) or IGF-1R beta subunit were used as loading controls. After detection the films were scanned for quantification.
(§2) The isolated cells were then lyzed in 10 ml ice-cold PBSTDS containing protease inhibitors (Carlberg, M., et al., J Biol Chem 271:17453-17462, 1996). 50 μl protein A or G agarose was added in 1 ml sample and incubated for 15 min at 4° C. on an orbital shaker. […] The protein content was determined by a dye-binding assay with a reagent purchased from Bio-Rad. […]
(§3) Following SDS-PAGE the proteins were transferred overnight to nitro-cellulose membranes (Hybond, Amersham, UK) and then blocked for 1 h at room temperature in a solution of 4% skimmed milk powder and 0.02% Tween 20 in PBS, pH 7.5. […] After another 3 washes the membranes were incubated with Streptavidin-labelled horseradish peroxidase for 30 min and then detected using Amersham ECL system (Amersham, UK). […]

[2] = test system: platelet-derived growth factor receptor (PDGFR); assay: Tyrosine phosphorylation of PDGFR in intact FM55 melanoma cells; assay type: cell-based, human; conditions: Experiment 3, 0.7 μM, 1 h, control = 100%
Method: as §1, §2, §3

[3] = target: T1, epidermal growth factor receptor (EGFR) (Homo sapiens, UniProt P00533); assay: Tyrosine phosphorylation of EGFR in intact FM55 melanoma cells; assay type: cell-based; conditions: Experiment 3, 0.7 μM, 1 h, control = 100%
T1 construct: endogenous in cells; host or cells: FM55 human melanoma cells
T1 sequence (P00533 25-1210): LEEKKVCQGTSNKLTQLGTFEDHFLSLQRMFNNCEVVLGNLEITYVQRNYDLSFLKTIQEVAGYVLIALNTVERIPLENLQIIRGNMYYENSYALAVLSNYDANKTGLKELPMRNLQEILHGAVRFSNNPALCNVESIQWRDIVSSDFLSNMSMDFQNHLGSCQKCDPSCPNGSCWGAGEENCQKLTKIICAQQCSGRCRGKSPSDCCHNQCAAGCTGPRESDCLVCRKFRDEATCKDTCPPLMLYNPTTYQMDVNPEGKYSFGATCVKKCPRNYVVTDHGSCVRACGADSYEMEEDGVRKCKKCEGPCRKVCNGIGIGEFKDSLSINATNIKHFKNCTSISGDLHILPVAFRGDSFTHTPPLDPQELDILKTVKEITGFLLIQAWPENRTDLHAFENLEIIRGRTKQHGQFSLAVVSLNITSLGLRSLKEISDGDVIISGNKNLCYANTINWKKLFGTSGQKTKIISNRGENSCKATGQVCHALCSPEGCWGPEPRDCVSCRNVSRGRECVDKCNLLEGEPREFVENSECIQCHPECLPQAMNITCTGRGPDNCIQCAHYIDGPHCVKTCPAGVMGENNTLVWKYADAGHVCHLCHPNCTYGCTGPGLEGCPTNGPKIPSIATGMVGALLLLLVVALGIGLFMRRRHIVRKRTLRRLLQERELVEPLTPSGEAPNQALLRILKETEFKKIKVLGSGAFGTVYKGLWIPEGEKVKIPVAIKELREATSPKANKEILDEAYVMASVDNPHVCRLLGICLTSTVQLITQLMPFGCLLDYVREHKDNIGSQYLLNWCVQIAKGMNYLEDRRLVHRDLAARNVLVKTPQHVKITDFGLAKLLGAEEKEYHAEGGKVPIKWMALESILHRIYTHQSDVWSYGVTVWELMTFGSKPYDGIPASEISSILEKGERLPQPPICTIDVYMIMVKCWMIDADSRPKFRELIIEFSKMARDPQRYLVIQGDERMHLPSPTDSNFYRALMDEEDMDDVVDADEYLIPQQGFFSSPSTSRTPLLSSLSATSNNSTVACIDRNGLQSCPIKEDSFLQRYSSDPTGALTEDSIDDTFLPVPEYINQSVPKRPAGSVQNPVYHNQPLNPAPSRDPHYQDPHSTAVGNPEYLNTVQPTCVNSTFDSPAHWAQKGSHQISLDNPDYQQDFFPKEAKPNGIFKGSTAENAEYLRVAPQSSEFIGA
Method: as §1, §2, §3

insulin receptor (IR) = target: T2, insulin receptor (IR) (Homo sapiens, UniProt P06213); assay: Tyrosine phosphorylation of IR in intact FM55 melanoma cells; assay type: cell-based; conditions: Experiment 3, 0.7 μM, 1 h, control = 100%
T2 construct: endogenous in cells; host or cells: FM55 human melanoma cells
T2 sequence (P06213 28-1382): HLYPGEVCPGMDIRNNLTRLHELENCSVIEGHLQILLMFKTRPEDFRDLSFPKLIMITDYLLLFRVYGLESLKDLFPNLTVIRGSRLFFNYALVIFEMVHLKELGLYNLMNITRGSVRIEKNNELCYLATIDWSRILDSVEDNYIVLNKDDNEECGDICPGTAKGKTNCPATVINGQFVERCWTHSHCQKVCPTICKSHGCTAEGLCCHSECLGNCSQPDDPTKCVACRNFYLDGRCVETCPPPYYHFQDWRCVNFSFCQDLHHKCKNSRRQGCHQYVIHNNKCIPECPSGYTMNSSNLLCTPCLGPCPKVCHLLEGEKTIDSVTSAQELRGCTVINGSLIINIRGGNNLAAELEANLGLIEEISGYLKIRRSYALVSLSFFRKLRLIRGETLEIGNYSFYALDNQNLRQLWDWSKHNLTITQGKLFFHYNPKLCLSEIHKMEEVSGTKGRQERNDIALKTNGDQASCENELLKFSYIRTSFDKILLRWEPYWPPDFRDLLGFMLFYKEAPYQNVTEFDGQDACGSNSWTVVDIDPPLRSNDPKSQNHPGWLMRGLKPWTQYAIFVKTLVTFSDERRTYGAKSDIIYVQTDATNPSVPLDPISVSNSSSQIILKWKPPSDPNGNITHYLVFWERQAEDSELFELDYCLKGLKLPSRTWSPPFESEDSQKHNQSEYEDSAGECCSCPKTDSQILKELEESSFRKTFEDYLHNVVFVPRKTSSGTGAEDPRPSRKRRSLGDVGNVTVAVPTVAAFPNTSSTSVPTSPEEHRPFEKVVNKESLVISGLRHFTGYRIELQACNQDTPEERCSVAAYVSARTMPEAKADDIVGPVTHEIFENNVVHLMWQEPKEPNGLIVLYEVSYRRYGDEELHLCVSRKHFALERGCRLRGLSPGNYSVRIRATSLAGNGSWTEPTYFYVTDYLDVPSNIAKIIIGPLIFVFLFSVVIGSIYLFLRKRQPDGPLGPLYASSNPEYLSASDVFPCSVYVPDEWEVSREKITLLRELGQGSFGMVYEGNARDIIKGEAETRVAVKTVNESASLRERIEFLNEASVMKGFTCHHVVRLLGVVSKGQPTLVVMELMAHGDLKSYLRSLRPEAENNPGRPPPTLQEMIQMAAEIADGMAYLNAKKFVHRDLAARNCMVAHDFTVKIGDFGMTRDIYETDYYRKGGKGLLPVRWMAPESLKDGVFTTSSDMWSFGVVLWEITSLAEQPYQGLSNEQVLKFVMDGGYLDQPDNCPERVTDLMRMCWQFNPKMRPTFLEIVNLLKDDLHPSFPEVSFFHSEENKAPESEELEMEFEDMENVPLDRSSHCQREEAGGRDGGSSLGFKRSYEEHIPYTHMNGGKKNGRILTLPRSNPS
Method: as §1, §2, §3

[4] = test system: insulin substrate-1 (IRS-1); assay: Tyrosine phosphorylation of IRS-1 in intact FM55 melanoma cells; assay type: cell-based, human; conditions: Experiment 3, 0.7 μM, 1 h, control = 100%
Method: as §1, §2, §3

[5] = target: T3, IGF-1R from P6 cell extract (Homo sapiens, UniProt P08069); assay: In vitro tyrosine kinase assay: IGF-1R-catalyzed pTG substrate phosphorylation; assay type: biochemical; conditions: cell-free
T3 construct: expressed in transfected cells; host or cells: P6 cell line (embryonic mouse fibroblasts)
Method: (§4) IGF-1R-catalyzed substrate phosphorylation of polyTyrGlu (pTG) was performed essentially as previously described [Parrizas M., et al., see above, and Blum G., et al., see above]. Immunoprecipitated IR from HepG2, IGF-1R from P6 cell extract and immunodepleted supernatant to assay non-IGF-1R tyrosine kinases. The phosphorylated polymer substrate was probed with a purified phosphotyrosine specific monoclonal antibody conjugated to horseradish peroxidase (HARP). Color was developed with HRP chromogenic substrate o-phenylenediamine dihydrochloride (OPD). The color was quantitated by spectrophotometry (BLISA reader) and reflects the relative amount of tyrosine kinase. The precipitate was immunoblotted with antibodies to IGF-1R and IR to verify the presence of the receptor. Serial dilutions were used to assay the optimal conditions with respect to the amount of IGF-1R and IR. The signal was linear for 30 minutes and was a function of IGF-1R concentration up to 75 ng/well. Briefly, 96 well plates (Immunolon, Nunc) were coated overnight at 4° C. with a mouse monoclonal antibody (LabVision) against the beta-subunit of IGF-1R at a concentration of 1 μg/ml. […]
(§5) We isolated the receptor and determined the effects of 4,5-demethylene-deoxypodophyllotoxin on IGF-1R catalyzed substrate tyrosine phosphorylation and IGF-1R autophosphorylation in-vitro. […]

[6] = target: epidermal growth factor receptor (Homo sapiens, UniProt P00533); assay: In vitro tyrosine kinase assay: EGFR substrate phosphorylation; assay type: biochemical; conditions: cell-free; data not shown
epidermal growth factor receptor, sequence (P00533 25-1210, species assumed): as the sequence (P00533 25-1210) above

[7] = target: T4, insulin receptor (IR from HepG2) (Homo sapiens, UniProt P06213); assay: In vitro tyrosine kinase assay: insulin receptor substrate phosphorylation; assay type: biochemical; conditions: cell-free; data not shown
T4 construct: Immunoprecipitated IR from HepG2; endogenous in cells; host or cells: HepG2
T4 sequence (P06213 28-1382): as the sequence (P06213 28-1382) above
Method: as §4, §5

non-IGF-1R kinases = assay: In vitro tyrosine kinase assay: non-IGF-1R kinases (IGF-1R immunodepleted supernatant); assay type: biochemical; conditions: cell-free; kinases obtained by immunodepletion of IGF-1R; data not shown
Method: as §4, §5

IGF-1R [8] = target: T5, IGF-1R (Homo sapiens, UniProt P08069); assay: IGF-1R tyrosine autophosphorylation, sandwich ELISA; assay type: biochemical; conditions: cell-free; stronger response by podophyllotoxin
Method: IGF-1R tyrosine autophosphorylation was analysed by a sandwich ELISA assay. Briefly, 96-well plates (Immunolon, Nunc) were coated overnight at 4° C. with 1 μg/well of the monoclonal antibody Ab-5 (LabVision) to the IGF-1R beta subunit. The plates were blocked with 1% BSA in PBS Tween for 1 h, then 80 µg/well of total protein lysate from the P6 cell line was added. As a negative control was used total protein lysate from R-cell line. The investigated compounds were added in tyrosine kinase buffer without ATP at room temperature for 30 min, prior to kinase activation with ATP. Kinase assay was performed using the Sigma kit.
We isolated the receptor and determined the effects of 4,5-demethylene-deoxypodophyllotoxin on IGF-1R catalyzed substrate tyrosine phosphorylation and IGF-1R autophosphorylation in-vitro. […] A stronger response was obtained by podophyllotoxin.
Target sequence in this assay (P08069 31-1367): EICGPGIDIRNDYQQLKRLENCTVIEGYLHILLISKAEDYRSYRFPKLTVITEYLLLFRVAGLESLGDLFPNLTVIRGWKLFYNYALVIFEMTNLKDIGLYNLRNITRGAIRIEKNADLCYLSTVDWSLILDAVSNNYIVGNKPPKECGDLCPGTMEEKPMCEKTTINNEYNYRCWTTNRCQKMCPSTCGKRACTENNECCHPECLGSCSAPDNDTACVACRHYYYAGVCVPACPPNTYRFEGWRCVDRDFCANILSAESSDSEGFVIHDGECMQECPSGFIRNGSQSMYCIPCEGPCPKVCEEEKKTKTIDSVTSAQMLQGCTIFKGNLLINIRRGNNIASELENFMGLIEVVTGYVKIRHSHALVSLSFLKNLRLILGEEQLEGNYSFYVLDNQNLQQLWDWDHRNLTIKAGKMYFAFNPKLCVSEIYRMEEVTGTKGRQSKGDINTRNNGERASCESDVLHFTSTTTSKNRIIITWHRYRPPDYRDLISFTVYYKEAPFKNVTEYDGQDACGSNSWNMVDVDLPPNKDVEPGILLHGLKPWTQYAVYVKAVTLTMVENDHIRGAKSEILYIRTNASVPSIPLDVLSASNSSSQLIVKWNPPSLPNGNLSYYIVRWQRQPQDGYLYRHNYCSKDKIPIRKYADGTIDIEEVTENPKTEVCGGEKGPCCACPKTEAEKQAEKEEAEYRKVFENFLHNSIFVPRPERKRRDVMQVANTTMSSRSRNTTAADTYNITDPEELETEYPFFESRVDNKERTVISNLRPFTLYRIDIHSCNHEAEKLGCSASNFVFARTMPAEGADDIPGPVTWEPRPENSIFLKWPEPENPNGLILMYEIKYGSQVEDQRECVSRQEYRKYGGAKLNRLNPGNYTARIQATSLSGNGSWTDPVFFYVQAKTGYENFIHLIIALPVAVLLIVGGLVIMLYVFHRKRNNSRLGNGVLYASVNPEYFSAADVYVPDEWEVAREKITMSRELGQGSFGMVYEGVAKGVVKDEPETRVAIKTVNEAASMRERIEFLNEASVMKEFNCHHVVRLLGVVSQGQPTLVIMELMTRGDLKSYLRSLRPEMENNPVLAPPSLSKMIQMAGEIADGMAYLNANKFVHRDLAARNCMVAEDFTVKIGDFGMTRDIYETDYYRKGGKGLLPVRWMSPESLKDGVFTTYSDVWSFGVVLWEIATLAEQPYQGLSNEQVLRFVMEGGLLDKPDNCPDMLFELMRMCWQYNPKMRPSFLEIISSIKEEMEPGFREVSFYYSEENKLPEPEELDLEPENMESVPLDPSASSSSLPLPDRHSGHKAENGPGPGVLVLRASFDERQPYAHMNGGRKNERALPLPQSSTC

IGF-1R [9] = target: T5, IGF-1R; assay: Tyrosine phosphorylation of IGF-1R in intact FM55 melanoma cells (immunoprecipitation, Western blot); assay type: cell-based; set-up: endogenous in cells; host or cells: FM55 human melanoma cells; conditions: 0.7 μM, 1 h; for Level of IGF-1R phosphorylation in intact cells (% OD): Experiment 1, FM55 melanoma cells, control OD = 100%; for Level of phosphorylation in intact cells (% OD), substrate IGF-1R: Experiment 3, FM55 cells, control = 100%
Method: as §1
Target sequence in this assay (P08069 31-1367): as above
The isolated cells were then lyzed in 10 ml ice-cold PBSTDS containing protease inhibitors (Carlberg, M., et al., J Biol Chem 271:17453-17462, 1996). 50 μl protein A or G agarose was added in 1 ml sample and incubated for 15 min at 4° C. on an orbital shaker. After centrifugation for 10 min at 10,000 r/min at 4° C. the supernatant was saved. The protein content was determined by a dye-binding assay with a reagent purchased from Bio-Rad. Bovine serum albumin was used as a standard. 15 μl Protein G Plus agarose and 5 μl anti-IGF-1R were added. After a 3 h incubation at 4° C. on an orbital shaker the precipitate was collected by pulse centrifugation in a micro centrifuge at 14,000×g for 10 s. The supernatant was discarded and the pellet was washed 3 times with PBSTDS.
Protein samples were solved in a 2×-sample buffer containing Laemmli buffer and 0.5% […] and boiled for 5 min at 96° C. Samples were separated by SDS-PAGE with a 4% stacking gel and 7.5% separation gel. Molecular weight markers (Bio Rad, Sweden) were run simultaneously in all experiments.
Following SDS-PAGE the proteins were transferred overnight to nitro-cellulose membranes (Hybond, Amersham, UK) and then blocked for 1 h at room temperature in a solution of 4% skimmed milk powder and 0.02% Tween 20 in PBS, pH 7.5. Incubations with the primary antibodies were performed for 1 h at room temperature, followed by 3 washes with PBS with Tween and incubation with the second antibody for 1 h room temperature. After another 3 washes the membranes were incubated with Streptavidin-labelled horseradish peroxidase for 30 min and then detected using Amersham ECL system (Amersham, UK). The films were scanned by Fluor-S (BioRad).
Melanoma cells (line FM55) were seeded in 6-cm dishes, at a concentration of 10,000 cells/cm2 in Minimal Essential Medium supplemented with 10% fetal calf serum (FCS). […] Phosphorylation of IGF-1R was detected by an anti-phosphotyrosine antibody using Western blotting. […] The intensities are quantified by a scanner, which measures the optical density (OD) of the signals. […]

IGF-1R [10] = target: T5, IGF-1R; assay: Effect on IGF-1R (method not given)
isolated IGF-1R kinase = isolated IGF-1R kinase (Homo sapiens, UniProt P08069); conditions: Blum et al., Biochemistry 2000; cited from earlier work
insulin receptor kinase = insulin receptor kinase (Homo sapiens, UniProt P06213); conditions: Blum et al., Biochemistry 2000; cited from earlier work

Row | Compound | Level of phosphorylation in intact cells (% OD), substrate FGFR [1] | Level of phosphorylation in intact cells (% OD), substrate PDGFR [2] | Level of phosphorylation in intact cells (% OD), substrate EGFR [3] | Level of phosphorylation in intact cells (% OD), substrate IR (insulin receptor (IR)) | Level of phosphorylation in intact cells (% OD), substrate IRS-1 [4] | Decrease of pTG substrate phosphorylation by the IGF-1 receptor ([5]; 0.5 μM) | Interference with substrate phosphorylation of epidermal growth factor receptor tyrosine kinase [6] | Interference with substrate phosphorylation of insulin receptor tyrosine kinase [7] | Interference with substrate phosphorylation of other non-IGF-1R kinases (non-IGF-1R kinases) | Inhibition of autophosphorylation of IGF-1R in vitro (IGF-1R [8]) | Level of IGF-1R phosphorylation in intact cells (% OD) (IGF-1R [9]) | Level of phosphorylation in intact cells (% OD), substrate IGF-1R (IGF-1R [9]) | Effect on IGF-1R substrate phosphorylation [5] | Effect on IGF-1R (IGF-1R [10]) | IC50 (isolated IGF-1R kinase) | Effect on insulin receptor kinase (insulin receptor kinase)
1 | COc1cc(C2c3cc(O)c(O)cc3CC3COC(=O)C32)cc(OC)c1OC (stereo not drawn) [4,5-demethylene-deoxypodophyllotoxin] | 104 % OD | 99 % OD | 100 % OD | 102 % OD | 70 % OD | about 35% | failed to interfere | failed to interfere | failed to interfere | inhibited | 73 % OD | 65 % OD |  |  |  | 
2 | COc1cc([C@@H]2c3cc4c(cc3[C@H](O)[C@H]3COC(=O)[C@H]23)OCO4)cc(OC)c1OC [Podophyllotoxin, podophyllotoxin] | 99 % OD | 101 % OD | 102 % OD | 103 % OD | 9 % OD |  | had only effect on IGF-1R | had only effect on IGF-1R | had only effect on IGF-1R | inhibited | 10 % OD | 12 % OD | had only effect on IGF-1R |  |  | 
3 | COc1cc(C2c3cc4c(cc3C(OC3OC5COC(c6ccccc6)OC5C(O)C3O)C3COC(=O)C23)OCO4)cc(OC)c1OC [podophyllotoxin-4,6-O-benzylidene-β-D-glucopyranoside] |  |  |  |  |  |  |  |  |  |  |  |  |  | completely disappeared |  | 
4 | N#C/C(=C\c1ccc(O)c(O)c1)C(=O)c1ccc(O)c(O)c1 [tyrphostin AG 538] |  |  |  |  |  |  |  |  |  |  |  |  |  |  | 0.4 µM | blocked

— US20070123491A1, “Podophyllotoxin derivatives as igf-1r inhibitors” (BIOVITRUM AB, priority 2003, published 2007)
